Assay results: PubChem BioAssay (NCI)
Where “and” joins values, the source holds several entries; their conditions need not be identical. Equal values may be shown once.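 Cultured in 96-well plates, cells were exposed to test compound for 48 hours across five concentrations. GI50: concentration for 50% inhibition of growth. Definition used: TGI = concentration required for complete inhibition of growth.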 *1 amine or outer side, *2 acyl side, *3 side chain or, on linkers, in order; H or OH if unused. Where a SMILES comes first, the peptide text is derived from it. Bridges are numbered along the chain shown (N, C = ends). Roman numbers before positions name the chains, in order. [ ]: non-standard residue; d: D form. Actinocin(9to1) = Cc1c2oc3c(C)ccc(C(=O)[*:1])c3nc-2c(C(=O)[*:2])c(N)c1=O; NMeF = CN[CH](Cc1ccccc1)C(=O)O; Sar = CNCC(=O)O

Tests used:
Assay in all cases: inhibition of tumour cell growth, NCI panel, 48 h
[1] = system: KM12 colon
[2] = system: NCI-H460 lung
[3] = system: T-47D breast
[4] = system: HCT-15 colon
[5] = system: 786-0 renal
[6] = system: HOP-62 NSCLC
[7] = system: UACC-62 melanoma
[8] = system: M14 melanoma
[9] = system: HL-60(TB) leukemia
[10] = system: SK-MEL-2 melanoma

Compound | GI50 [1] [µM] | TGI [1] [µM] | GI50 [2] | TGI [2] | GI50 [3] [µM] | TGI [3] | GI50 [4] | TGI [4] [µM] | GI50 [5] | TGI [5] [µM] | GI50 [6] [µM] | TGI [6] | GI50 [7] | TGI [7] | GI50 [8] [µM] | TGI [8] [µM] | GI50 [9] [µM] | TGI [9] [µM] | GI50 [10] [µM] | TGI [10]
CCSc1ccc(C2C(Br)C(=O)N2c2cc(OC)c(OC)c(OC)c2)cc1 (centres undefined) | 0.202 | > 100 | 0.539 µM | 14.2 µM | 16.9 | 35.7 µM | 0.21 µM | 18.2 | 0.34 µM | 13.1 | 0.336 | > 100 µM | 0.0973 µM | 30 µM | 0.128 | 2.12 | 0.214 | 0.527 | 0.484 | > 100 µM
N#CC1C=Cc2c(ccc3ccccc23)N1C(=O)c1ccccc1 (centres undefined) | 0.141 | 3.98 | 0.191 µM | 7.56 µM | 0.103 | > 100 µM | 0.184 µM | > 100 | 0.909 µM | > 100 | 0.387 | > 100 µM | 0.243 µM | > 100 µM | 0.209 | > 100 | 0.171 |  | 4.61 | > 60.7 µM
Nc1ncc(-c2cccc(S(N)(=O)=O)c2)c2scc(-c3ccc(F)c(Cl)c3)c12 | 5.56 | 14.7 | 3.8 µM | 8.08 µM | 3.59 | 11 µM | 6.59 µM | > 25 | 6.02 µM | 17 | 5.47 | 12.6 µM | 5.17 µM | 11.7 µM | 7.54 | 16.8 | 4.76 | 11.7 | 5.88 | 10.9 µM
C=CC(COC(c1ccccc1)(c1ccccc1)c1ccccc1)N(CC)CC (centres undefined) | 4.33 | 14.8 | 2.5 µM | 6.58 µM | 4.6 | 19.8 µM | 2.6 µM | 13.9 | 11.4 µM | 27.7 | 3.93 | 15.6 µM | 3.61 µM | 12.5 µM | 2.53 | 6.19 | 3.68 | 16.2 | 4.68 | 13.9 µM
Cc1coc2c1C(OC(=O)C(C)C)C1(C)C(C)CCC(O)C1C2=O (centres undefined) |  | > 100 |  | > 100 µM |  | > 100 µM |  | > 100 |  | > 100 |  | > 100 µM |  | > 100 µM |  | > 100 |  | > 100 |  | > 100 µM
Cc1c2oc3c(C)ccc(C(=O)NC4C(=O)NC(C(C)C)C(=O)N5CCCC5C(=O)N(C)CC(=O)N(C)C(Cc5ccccc5)C(=O)OC4C)c3nc-2c(C(=O)NC2C(=O)NC(C(C)C)C(=O)N3CCCC3C(=O)N(C)CC(=O)N(C)C(Cc3ccccc3)C(=O)OC2C)c(N)c1=O (centres undefined) (I: TVP[Sar][NMeF] / II: TVP[Sar][NMeF]; ester I:1-I:C, II:1-II:C; linker I:N-II:N via Actinocin(9to1); configuration not given here) |  |  | < 0.01 µM and 0.00074 µM | < 0.01 µM and 0.0206 µM |  | < 0.01 µM and 0.0419 µM | < 0.0147 µM and 0.0622 µM | > 31.6 | < 0.01 µM and 0.00327 µM | > 1 |  | < 0.0134 µM and 0.0328 µM | < 0.01 µM and 0.00426 µM | < 0.01 µM and 0.0188 µM |  | 0.126 | 0.00285 | 0.0205 |  | < 0.01 µM and 0.0326 µM
Nc1c(C(=O)Nc2cccc(Cl)c2Cl)sc2nc3c(cc12)C(=O)CCC3 | > 100 | > 100 | 0.601 µM | > 100 µM | > 100 | > 100 µM | > 100 µM | > 100 | > 100 µM | > 100 | > 100 | > 100 µM |  |  | > 100 | > 100 | > 100 | > 100 |  | > 100 µM
COc1cccc2c1n([O-])c1cccc(OC)c1[n+]2=O | 10.6 | 29.6 | 3.05 µM | 14.4 µM | 2.39 | 10.3 µM | 4.95 µM | > 100 | 8.78 µM | 28.8 | 11 | 36.7 µM | 9.22 µM | 27.4 µM | 7.02 | 26.5 | 3.23 | 9.12 | 17.8 | > 100 µM
NC(=S)NN=C1CSSC1 | 5.92 | 23.5 | 1.61 µM | 6.49 µM | 4.31 | 29.1 µM | 1.7 µM | 4.75 | 11.9 µM | 72.5 | 2.04 | 12.2 µM | 3.21 µM | 17.2 µM | 1.92 | 7.79 | 0.516 | 6.81 | 3.23 | 18.9 µM
Cn1cc(C2=C(N3CCOCC3)C(=O)NC2=O)c2ccccc21 | > 25 | > 25 | > 25 µM | > 25 µM | > 25 | > 25 µM | > 25 µM | > 25 | > 25 µM | > 25 | > 25 | > 25 µM | > 25 µM | > 25 µM | > 25 | > 25 | > 25 | > 25 | > 25 | > 25 µM
COc1cc(NC(=O)C2=C(N3CCOCC3)/C(=C/c3ccc(Cl)cc3)CC2)cc(OC)c1OC | > 100 | > 100 | > 100 µM | > 100 µM | > 100 | > 100 µM | > 100 µM | > 100 | 10.4 µM | 33.1 | 4.66 | 21.2 µM | > 100 µM | > 100 µM | > 100 | > 100 | > 100 | > 100 | 66.8 | > 100 µM
Cc1cc(C(=O)c2ccccc2)c(C)c2c1[nH]c1ccc(Cl)cc12 | 0.045 | 7.23 | 0.041 µM | 14.7 µM | 0.0447 | > 87.2 µM | 0.0492 µM | 5.1 | 0.0629 µM | 3.51 | 0.067 | 23 µM | 0.0399 µM | 18.7 µM | 0.0456 | > 41.7 | 0.0398 | 1.78 | 0.0829 | 29.2 µM
Cc1ccc(-c2cc(O)c(-c3ccc(C)cc3C)cc2O)c(C)c1 | 8.2 | 26.8 | 0.923 µM | 15.2 µM | 5.24 | 42.9 µM | 0.54 µM | 18.9 | 7.65 µM | 21.2 | 11.2 | 25.9 µM | 4.23 µM | 19.8 µM | 6.58 | 19.9 | 10.3 | > 100 | 15.4 | 30.1 µM
O=C(CCc1ccc(O)cc1)N/N=C/c1cc(Br)ccc1O | 3.36 | 31.5 | 2.93 µM | 14.2 µM | 3.74 | 41.6 µM | 2 µM | > 100 | 3.73 µM | 70.7 | 6.76 | 57.6 µM | 2.44 µM | 7.02 µM | 2.75 | 17.4 | 2.5 | 9.66 | 5.28 | 38.3 µM
CC(C)(C)c1ccc(NS(=O)(=O)c2ccc3nc(NC(=O)c4cnccn4)[nH]c3c2)cc1 | 2.16 | 13.9 | 2.59 µM | 11 µM | 4.37 | 23.7 µM | 0.774 µM | 14.6 | 3.35 µM | 14.8 | 2.88 | 15.8 µM | 1.11 µM | 13.2 µM | 2.42 | 17.6 | 3.67 | 15.7 | 4.56 | 19 µM
COc1cc2c3c(n(C)c(=O)c2cc1OC)-c1cc2c(cc1/C3=C\CCNCCCN)OCO2 | 1.41 | 10.5 | 0.853 µM | 20.3 µM | 2.64 | 15.3 µM | 16.9 µM | 39.6 | 1.99 µM | 12.5 | 3.85 | 15.6 µM |  |  | 5.32 | 20.5 | 0.927 | 8.03 | 5.09 | > 100 µM
CC[C@H](C)C(=O)O[C@H]1C[C@H](O)C=C2C=C[C@H](C)[C@H](CC[C@@H](O)C[C@@H](O)CC(=O)O)[C@H]21 | > 100 | > 100 | > 100 µM | > 100 µM | > 100 | > 100 µM | > 100 µM | > 100 | > 100 µM | > 100 | > 100 | > 100 µM | > 100 µM | > 100 µM | > 100 | > 100 | > 100 | > 100 | > 100 | > 100 µM
C[C@@H]1COCCN1c1cc(C2(O)C[C@H]3CC[C@@H](C2)O3)c2cnn(-c3ccn[nH]3)c2n1 (some centres undefined) | 0.167 | 9.73 | 0.0334 µM | 1.43 µM | 0.122 | 0.734 µM | 0.0394 µM | > 42.2 | 0.0479 µM | > 100 | 0.0786 | 1.41 µM | 0.05 µM | 0.384 µM | 0.0383 | 0.785 | 0.172 |  | 0.0304 | 0.202 µM
O=[N+]([O-])c1cccc2nccc(NCCCO)c12 |  | 24.6 |  | 24.4 µM |  | 79.7 µM |  | 21.2 |  | 37 |  | 35.4 µM |  | 23.3 µM |  | 25.6 |  | 36.8 |  | 20.9 µM
O=C(O)Cn1cc([N+](=O)[O-])c(=O)c2ccccc21 |  | > 100 |  | > 100 µM |  | 32.8 µM |  | > 100 |  | > 100 |  | > 100 µM |  | > 100 µM |  | > 100 |  | > 100 |  | > 100 µM
C[C@@H](Nc1nc(Nc2ccc(F)c(Cl)c2)nc2ccccc12)C1CC1 | 3.18 | 14.1 | 3.12 µM | 19.3 µM | 2.7 | 14 µM | 2.39 µM | 8.14 | 1.69 µM | 3.45 | 11.2 | 25 µM | 2.68 µM | 14.3 µM | 1.87 | 4.12 | 2.45 | 6.32 | 5.88 | 24.9 µM
COc1c(B(O)O)cc(F)cc1-c1nc2ccc3[nH]ncc3c2c2c1CCCC2 | 1.26 | 7.62 | 0.822 µM | 10.5 µM | 2.62 | 8.99 µM | 2.12 µM | 9.44 | 0.279 µM | 5.84 | < 0.0212 | 11.5 µM | 1.55 µM | 5.85 µM | 2.64 | 5.44 | 0.112 | 10.5 | 2.67 | 7.05 µM
O=c1oc2c(C(F)(F)F)cccc2cc1-c1csc(Nc2ccc(OCCF)cc2)n1 | 0.0375 | 17.5 | 0.0357 µM |  | 0.0797 | > 100 µM | 0.0389 µM | > 100 | 0.0611 µM |  | 0.0378 | > 36.8 µM | 0.0507 µM | > 38.9 µM | 0.0282 | 1.14 | 0.0248 | 0.0573 | 0.0593 | > 39.9 µM
O=C(c1ccccc1)c1c(C(F)(F)F)n([O-])c2ccc(C(F)(F)F)cc2[n+]1=O | 0.385 | 0.903 | 0.232 µM | 0.587 µM | 0.372 | 1.08 µM | 0.277 µM | 0.711 | 0.167 µM | 0.307 | 0.347 | 0.765 µM | 0.665 µM | 1.86 µM | 0.619 | 1.47 | 0.084 | 0.309 | 1.24 | 2.96 µM
Cc1cccc(Cc2cnc(NC(=O)CCc3ccc(C)o3)s2)c1 | 0.16 | > 100 | 0.263 µM | > 100 µM | 0.427 | > 100 µM | 0.0729 µM | > 100 | 0.724 µM | > 100 | 0.345 | > 55.6 µM | 0.16 µM | > 100 µM | 0.136 | > 41.4 | 0.161 | 0.44 | 0.404 | > 100 µM
O=C(O)/C(=C\c1ccncc1)c1cccc2ccccc12 |  | > 100 |  | > 100 µM |  | > 100 µM |  | > 100 |  | > 100 |  | > 100 µM |  |  |  | > 100 |  | > 100 |  | > 100 µM
